Reference: patent US20240254119A1 (THIRD HARMONIC BIO, INC., priority 2022, published 2024)
pIC50: −log10 of the molar value.

system: not listed separately; test: Kinetic solubility assay; format: physicochemical; settings: kinetic solubility, 50 mM PB (pH 7.4), shaken 24 hours at RT
Method in brief: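 Concentration in the filtrate was determined by UPLC-UV or HPLC-UV with a standard curve. Before that, compound (10 mM DMSO stock) in 50 mM PB at pH 7.4 was agitated 24 h at room temperature, then PTFE-filtered with centrifugation.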

| Compound | Solubility (μM) |
| --- | --- |
| COC1(OC)CCC1c1nc(-c2ccc(C)c(NC(=O)c3cnc4ccccn34)c2)no1 (racemic) [Compound I-308] | *** (a solubility greater than 2 μM and less than or equal to 10 μM) |
| Cc1ccc(-c2noc(C3CCCN3)n2)cc1NC(=O)c1cnc2ccccn12 (racemic) [Compound I-391] | * (a solubility greater than 50 μM) |
| Cc1ccc(-c2noc(C3CCN3C(=O)OC(C)(C)C)n2)cc1NC(=O)c1cnc2ccccn12 (racemic) [Compound I-395] | ** (a solubility greater than 10 μM and less than or equal to 50 μM) |
| Cc1ccc(-c2noc(C3CCCCO3)n2)cc1NC(=O)c1cnc2ccccn12 (racemic) [Compound I-397] | *** (a solubility greater than 2 μM and less than or equal to 10 μM) |
| Cc1ccc(-c2noc(C3CCN(C(=O)OC(C)(C)C)C3)n2)cc1NC(=O)c1cnc2ccccn12 (racemic) [Compound I-399] | *** (a solubility greater than 2 μM and less than or equal to 10 μM) |
| Cc1ccc(-c2noc([C@H]3CCN3)n2)cc1NC(=O)c1cnc2cc(C#N)ccn12 [Compound I-244] | * (a solubility greater than 50 μM) |
| COC(=O)N1CC(c2nc(-c3ccc(C)c(NC(=O)c4cnc5ccc(OCCO)cn45)c3)no2)C1 [Compound I-247] | *** (a solubility greater than 2 μM and less than or equal to 10 μM) |
| Cc1ccc(-c2noc(C3CN(C(N)=O)C3)n2)cc1NC(=O)c1cnc2ccccn12 [Compound I-268] | * (a solubility greater than 50 μM) |
| Cc1ccc(-c2noc([C@H]3C[C@@H]3F)n2)cc1NC(=O)c1cnc2cc(Nc3c(C)cccc3C)ccn12 [Compound I-293] | *** (a solubility greater than 2 μM and less than or equal to 10 μM) |
| CCOC1CC(c2nc(-c3ccc(C)c(NC(=O)c4cnc5ccccn45)c3)no2)C1 (centres unmarked) [Compound I-310] | **** (a solubility less than or equal to 2 μM) |

molecular target: T1, wtKIT (Homo sapiens, UniProt P10721); test: HTRF biochemical assay, wtKIT (phosphorylation of a peptide substrate); settings: Table 4
T1 construct: 1888289AM in the reaction mixtures
T1 sequence (P10721 26-976): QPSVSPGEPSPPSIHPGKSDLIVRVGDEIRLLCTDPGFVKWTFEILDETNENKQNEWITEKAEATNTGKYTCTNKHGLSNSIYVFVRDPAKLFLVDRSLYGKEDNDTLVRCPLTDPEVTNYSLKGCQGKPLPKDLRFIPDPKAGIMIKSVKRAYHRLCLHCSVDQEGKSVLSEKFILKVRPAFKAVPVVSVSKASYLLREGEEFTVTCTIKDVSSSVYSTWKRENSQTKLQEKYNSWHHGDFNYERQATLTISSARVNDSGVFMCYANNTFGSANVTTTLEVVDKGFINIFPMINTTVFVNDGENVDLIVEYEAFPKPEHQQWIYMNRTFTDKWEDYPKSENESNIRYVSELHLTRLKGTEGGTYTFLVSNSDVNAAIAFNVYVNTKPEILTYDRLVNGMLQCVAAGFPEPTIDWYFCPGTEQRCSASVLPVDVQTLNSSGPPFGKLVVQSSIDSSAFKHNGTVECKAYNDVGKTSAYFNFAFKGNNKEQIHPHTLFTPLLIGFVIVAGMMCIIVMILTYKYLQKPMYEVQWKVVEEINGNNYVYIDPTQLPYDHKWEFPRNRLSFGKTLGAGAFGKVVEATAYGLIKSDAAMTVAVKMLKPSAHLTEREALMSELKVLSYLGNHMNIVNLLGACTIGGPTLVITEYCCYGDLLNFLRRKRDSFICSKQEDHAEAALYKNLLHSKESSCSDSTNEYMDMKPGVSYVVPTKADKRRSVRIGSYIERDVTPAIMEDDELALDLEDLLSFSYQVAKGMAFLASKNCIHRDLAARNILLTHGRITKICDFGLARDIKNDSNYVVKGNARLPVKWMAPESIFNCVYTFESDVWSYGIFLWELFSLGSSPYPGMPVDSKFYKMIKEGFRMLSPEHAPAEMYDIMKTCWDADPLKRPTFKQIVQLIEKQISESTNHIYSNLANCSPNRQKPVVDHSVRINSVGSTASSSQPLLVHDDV
Method in brief: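 HTRF read-out of FAM-peptide (1 µM) phosphorylation after anti-phosphotyrosine antibody addition and EDTA quench. Reaction: 5.0 nM wtKIT, 400 µM ATP, 10 mM Mn2+, HEPES pH 7.5, 1% DMSO, 3 h, 25 °C; optional enzyme-compound preincubation; enzyme level set for 10-20% conversion.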

| pIC50 | Compound |
| --- | --- |
| 6.30 to 7.30 | Cc1ccc(-c2noc([C@H]3CCN3)n2)cc1NC(=O)c1cnc2cc(C#N)ccn12 [Compound I-244] |
| 6.30 to 7.30 | COC(=O)N1CC(c2nc(-c3ccc(C)c(NC(=O)c4cnc5ccc(OCCO)cn45)c3)no2)C1 [Compound I-247] |

molecular target: T1, wtKIT; test: Caliper biochemical assay, wtKIT; settings: Table 6, read-out: KIT Biochemical IC50 avg
Protocol: Enzyme, substrate, and cofactors (ATP and Mn^2+) are combined in a well of a microtiter plate and incubated for 3 hours at 25° C. At the end of the incubation, the reaction is quenched by the addition of an EDTA-containing buffer. Substrate and product are separated electrophoretically using the microfluidic-based LabChip 3000 Drug Discovery System from Caliper Life Sciences* and quantitated by fluorescence intensity.
The substrate used in the CSF-1R and PDGFRα assay is FAM-[…]-CONH2 (FAM is carboxyfluorescein). Peptide should be >95% purity. The substrate for the KIT assay is FAM-[…]-NH2.
• 1. To a well of a 384-well plate add 5 μL of 2× enzyme buffer (or control) • 2. Add 100 nL of 100× compound. • 3. Add 5 μL of 2× substrate buffer. • 4. Incubate plate at 25° C. for 3 hours. • 5. Add 10 uL of […]. • 6. Read plate LabChip 3000 Drug Discovery System
• 3 hours at 25° C. where 100% Inhibitor: No enzyme.
• 100 mM HEPES, pH 7.5 0.1% BSA • 0.01% Triton X-100 • 1 mM DTT • 10 mM MnCl2 • 10 μM Sodium Orthovanadate • 10 μM Beta-Glycerophosphate • 400 μM ATP • 1% DMSO (from compound) • 1 μM FAM-[…]-CONH2 5.0 nM wtKIT Enzyme (1888289AM)* • *Specific activity may vary from lot to lot. Enzyme concentration may need to be adjusted to yield 10-20% conversion of substrate to product.

| pIC50 | Compound |
| --- | --- |
| ≥ 7.30 | COC1(OC)CCC1c1nc(-c2ccc(C)c(NC(=O)c3cnc4ccccn34)c2)no1 (racemic) [Compound I-308] |
| ≥ 7.30 | Cc1ccc(-c2noc(C3CCCN3)n2)cc1NC(=O)c1cnc2ccccn12 (racemic) [Compound I-391] |
| 6.30 to 7.30 | Cc1ccc(-c2noc(C3CCN3C(=O)OC(C)(C)C)n2)cc1NC(=O)c1cnc2ccccn12 (racemic) [Compound I-395] |
| ≥ 7.30 | Cc1ccc(-c2noc(C3CCCCO3)n2)cc1NC(=O)c1cnc2ccccn12 (racemic) [Compound I-397] |
| 6.30 to 7.30 | Cc1ccc(-c2noc(C3CCN(C(=O)OC(C)(C)C)C3)n2)cc1NC(=O)c1cnc2ccccn12 (racemic) [Compound I-399] |
| 6.30 to 7.30 | Cc1ccc(-c2noc([C@H]3CCN3)n2)cc1NC(=O)c1cnc2cc(C#N)ccn12 [Compound I-244] |
| ≥ 7.30 | COC(=O)N1CC(c2nc(-c3ccc(C)c(NC(=O)c4cnc5ccc(OCCO)cn45)c3)no2)C1 [Compound I-247] |
| 6.30 to 7.30 | Cc1ccc(-c2noc(C3CN(C(N)=O)C3)n2)cc1NC(=O)c1cnc2ccccn12 [Compound I-268] |
| 6.30 to 7.30 | Cc1ccc(-c2noc([C@H]3C[C@@H]3F)n2)cc1NC(=O)c1cnc2cc(Nc3c(C)cccc3C)ccn12 [Compound I-293] |
| 6.30 to 7.30 | CCOC1CC(c2nc(-c3ccc(C)c(NC(=O)c4cnc5ccccn45)c3)no2)C1 (centres unmarked) [Compound I-310] |

molecular target: T2, BCRP (BCRP-MDCKII monolayer) (Homo sapiens, UniProt Q9UNQ0); test: MDCKII-BCRP bidirectional transport assay; format: in vitro ADME; settings: not given
T2 construct: host or cells: MDCKII (canine kidney) cells
T2 sequence (Q9UNQ0 1-655): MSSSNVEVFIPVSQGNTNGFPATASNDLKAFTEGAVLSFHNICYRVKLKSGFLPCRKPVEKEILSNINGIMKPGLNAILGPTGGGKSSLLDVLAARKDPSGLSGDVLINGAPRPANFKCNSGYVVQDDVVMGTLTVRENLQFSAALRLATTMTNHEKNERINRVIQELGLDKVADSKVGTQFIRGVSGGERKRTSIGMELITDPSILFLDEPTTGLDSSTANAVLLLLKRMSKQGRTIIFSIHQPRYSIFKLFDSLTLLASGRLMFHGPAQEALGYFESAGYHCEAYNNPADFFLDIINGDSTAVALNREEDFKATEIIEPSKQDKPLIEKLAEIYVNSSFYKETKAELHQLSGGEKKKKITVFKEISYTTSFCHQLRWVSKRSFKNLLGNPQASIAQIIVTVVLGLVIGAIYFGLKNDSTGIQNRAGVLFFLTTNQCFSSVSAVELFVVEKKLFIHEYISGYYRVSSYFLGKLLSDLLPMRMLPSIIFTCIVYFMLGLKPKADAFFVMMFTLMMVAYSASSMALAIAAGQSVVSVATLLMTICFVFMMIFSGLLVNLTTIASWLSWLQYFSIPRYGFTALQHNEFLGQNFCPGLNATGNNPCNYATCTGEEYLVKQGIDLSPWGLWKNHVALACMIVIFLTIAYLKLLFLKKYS
Protocol: Exemplary compounds were tested for cell permeability in Caco-2, MDCKII-MDR1 and MDCKII-BCRP cell lines with efflux transporter engagement inferred from the efflux ratios determined. Procedures and results are described below. […] This feature of certain compounds is in part due to efflux transporter engagement. See, for instance, exemplary such compounds included in data tables below.
The reference compound Teriflunomide and test compounds are tested in the bidirectional assay. Test compound and reference compounds incubations were tested in duplicates.
The transport assay can be performed between days 12 to day 15 using ready to use PreadyPort™ BCRP-MDCKII monolayer in 96 well plate.
The medium was aspirated from the apical and basal compartments and 75 and 235 μL assay buffer was added to each of the 96 wells of apical and basal compartments of the PreadyPort™ plate.
The plates were pre-incubated for 15 min at 37° C. with 5% CO2 in humidified atmosphere. After preincubation the assay buffer was removed from the apical and basal inserts of the plate.
In apical to basolateral (A→B) transport, 75 μL of test or reference compound working solution to apical inserts and 235 μL of blank assay buffer were added to the corresponding basal compartments.
In basolateral to apical transport, 235 μL of test or reference compound working solution to the basal compartments and 75 μL of blank assay buffer solution were added to corresponding apical inserts.
The sandwich plate was incubated for 120 min in incubator at 5% CO2 and 37° C.
After incubation, 60 μL was transferred from receiver and donor compartments to collection plate.
For donor and C0 samples 20-fold dilution was accomplished by mixing 60 μL of collected sample with 1140 μL of transport buffer and from that solution aliquot 60 μL transfer Both receiver and donor samples were processed by adding […] of acetonitrile containing internal standard (60 μL of sample+240 μL of acetonitrile containing glyburide as internal standard, 125 ng/mL) and vortexing the samples. The compound concentration was measured in all samples using respective calibration standards by LC-MS/MS.
Calculate the Papp and recovery using the given formula:
[formula] [formula] • Where: dQ/dt=Permeability rate in μM/see • C0=Initial concentration in μM • A=Membrane surface area (0.33 cm^2) • V=Volume of receiver chamber • Cend, a=concentration in acceptor well at end of incubation • Cend, d=concentration in donor well at end of incubation • CHBSS=loading concentration measured in HBSS

| MDCK-BCRP: Efflux Ratio | Compound |
| --- | --- |
| 1.13 | COC1(OC)CCC1c1nc(-c2ccc(C)c(NC(=O)c3cnc4ccccn34)c2)no1 (racemic) [Compound I-308] |
| 12.1 | Cc1ccc(-c2noc(C3CCCN3)n2)cc1NC(=O)c1cnc2ccccn12 (racemic) [Compound I-391] |
| 3.28 | Cc1ccc(-c2noc(C3CCN3C(=O)OC(C)(C)C)n2)cc1NC(=O)c1cnc2ccccn12 (racemic) [Compound I-395] |
| 2.83 | Cc1ccc(-c2noc(C3CCCCO3)n2)cc1NC(=O)c1cnc2ccccn12 (racemic) [Compound I-397] |
| 2.78 | Cc1ccc(-c2noc(C3CCN(C(=O)OC(C)(C)C)C3)n2)cc1NC(=O)c1cnc2ccccn12 (racemic) [Compound I-399] |
| 11.6 | Cc1ccc(-c2noc(C3CN(C(N)=O)C3)n2)cc1NC(=O)c1cnc2ccccn12 [Compound I-268] |
| 4.55 | Cc1ccc(-c2noc([C@H]3C[C@@H]3F)n2)cc1NC(=O)c1cnc2cc(Nc3c(C)cccc3C)ccn12 [Compound I-293] |
| 0.81 | CCOC1CC(c2nc(-c3ccc(C)c(NC(=O)c4cnc5ccccn45)c3)no2)C1 (centres unmarked) [Compound I-310] |

same assay, conditions: apical to basolateral

| MDCK-BCRP: Papp A-B | Compound |
| --- | --- |
| 16.3 10^−6 cm/s | COC1(OC)CCC1c1nc(-c2ccc(C)c(NC(=O)c3cnc4ccccn34)c2)no1 (racemic) [Compound I-308] |
| 2.13 10^−6 cm/s | Cc1ccc(-c2noc(C3CCCN3)n2)cc1NC(=O)c1cnc2ccccn12 (racemic) [Compound I-391] |
| 19 10^−6 cm/s | Cc1ccc(-c2noc(C3CCN3C(=O)OC(C)(C)C)n2)cc1NC(=O)c1cnc2ccccn12 (racemic) [Compound I-395] |
| 8.04 10^−6 cm/s | Cc1ccc(-c2noc(C3CCCCO3)n2)cc1NC(=O)c1cnc2ccccn12 (racemic) [Compound I-397] |
| 6.48 10^−6 cm/s | Cc1ccc(-c2noc(C3CCN(C(=O)OC(C)(C)C)C3)n2)cc1NC(=O)c1cnc2ccccn12 (racemic) [Compound I-399] |
| 0.31 10^−6 cm/s | Cc1ccc(-c2noc(C3CN(C(N)=O)C3)n2)cc1NC(=O)c1cnc2ccccn12 [Compound I-268] |
| 0.02 10^−6 cm/s | Cc1ccc(-c2noc([C@H]3C[C@@H]3F)n2)cc1NC(=O)c1cnc2cc(Nc3c(C)cccc3C)ccn12 [Compound I-293] |
| 12 10^−6 cm/s | CCOC1CC(c2nc(-c3ccc(C)c(NC(=O)c4cnc5ccccn45)c3)no2)C1 (centres unmarked) [Compound I-310] |
